In publication PMC4607407 (PLoS ONE, 2015):
Read-outs that look alike come from different tables or passages of the source.

Experiments:
[1] = test system: melanoma PDX tumor model (ST052C); test: Vemurafenib-resistant melanoma PDX combination study; assay type: in vivo, mice; settings: ARQ 092 100 mg/kg 5 days on 2 days off; trametinib 3 mg/kg; p<0.05
Experimental: Athymic nude mice (Charles River Laboratories, Wilmington, MA) were subcutaneously implanted with tumor fragments and the study was initiated seven days later when the mean tumor volume was approximately 140 mm^3. […] After 13 days, the dosing schedule for trametinib was reduced to a schedule of 5 days on and 2 days off.
(§5) The tumor length and width (mm) were measured using a digital caliper. The estimated tumor volume (mm^3) was calculated according to the following formula: 0.5 x (tumor length) x (tumor width)^2, and reported as the mean ± SEM.

AKT1-E17K = biological target: T1, AKT1-E17K (Homo sapiens, UniProt P31749, E17K); test: AKT1 plasma membrane translocation in NIH 3T3 cells; assay type: cell-based; settings: NIH 3T3, 1 μM for 2 hours, PDGF-BB 50 ng/ml 10 minutes
T1 construct: host or cells: NIH 3T3 cells
Experimental: (§1) Cells (15,000 cells per chamber) were plated into a Nunc Lab-Tek Chambered Coverglass System (Thermo Fisher Scientific, Waltham, MA) containing full media without antibiotics. […] Next, the cells were stimulated with PDGF (PeproTech, Rocky Hill, NJ) at 50 ng/ml for 10 minutes. Cells were washed with PBS and then fixed with 200 μl paraformaldehyde fixation buffer (3% paraformaldehyde, 2% sucrose in PBS, pre-warmed at […]). After washing with PBS, cells were blocked and permeabolized with 0.1% TX-100 + 1% BSA in PBS for 15 minutes at room temperature. Next, 200 μl DAPI (1 μg/ml in PBS) was used to counterstain the nuclei at room temperature in darkness for 15 minutes. Samples were then rinsed with cold PBS and stored at 4°C until imaging. Images were captured using an Olympus inverted epi-fluorescent microscope (Olympus Corporation of America, Center Valley, PA) with a 60x oil immersion objective.

AKT1-WT = biological target: T2, AKT1-WT (Homo sapiens, UniProt P31749); test: as above; assay type: cell-based; settings: NIH 3T3, 1 μM for 2 hours, PDGF-BB 50 ng/ml 10 minutes
T2 construct: host or cells: NIH 3T3 cells
Experimental: as §1

KU-19-19 = test: Cell proliferation MTS assay; assay type: cell-based; settings: Homo sapiens, read-out: IC50 KU-19-19 (AKT1-E17K, NrasQ61R)
Experimental: (§2) IC50 was calculated using Activity Base. Data shown as mean ± standard deviation. […] (DOCX) Click here for additional data file.
(§3) Treated cells were incubated at 37°C for 72 hours in 5% CO2.
(§4) The GI50 was then determined using Microsoft ExcelFit software in Activity Base.

MDA-MB-453 = test: Cell proliferation MTS assay; assay type: cell-based; settings: Homo sapiens, read-out: IC50 MDA-MB-453 (PIK3CAH1047R)
Experimental: as §2, §3, §4

NCI-H1650 = test: Cell proliferation MTS assay; assay type: cell-based; settings: Homo sapiens, read-out: IC50 NCI-H1650 (PTEN null)
Experimental: as §2, §3, §4

KPL-4 tumors = test: KPL-4 xenograft combination study; assay type: in vivo, mice; settings: vs untreated control; ARQ 092 60 mg/kg oral daily 12 days; trastuzumab 15 mg/kg iv every three days; paclitaxel 15 mg/kg iv every 6 days
Experimental: as §5

T1 sequence (P31749 whole entry E17K): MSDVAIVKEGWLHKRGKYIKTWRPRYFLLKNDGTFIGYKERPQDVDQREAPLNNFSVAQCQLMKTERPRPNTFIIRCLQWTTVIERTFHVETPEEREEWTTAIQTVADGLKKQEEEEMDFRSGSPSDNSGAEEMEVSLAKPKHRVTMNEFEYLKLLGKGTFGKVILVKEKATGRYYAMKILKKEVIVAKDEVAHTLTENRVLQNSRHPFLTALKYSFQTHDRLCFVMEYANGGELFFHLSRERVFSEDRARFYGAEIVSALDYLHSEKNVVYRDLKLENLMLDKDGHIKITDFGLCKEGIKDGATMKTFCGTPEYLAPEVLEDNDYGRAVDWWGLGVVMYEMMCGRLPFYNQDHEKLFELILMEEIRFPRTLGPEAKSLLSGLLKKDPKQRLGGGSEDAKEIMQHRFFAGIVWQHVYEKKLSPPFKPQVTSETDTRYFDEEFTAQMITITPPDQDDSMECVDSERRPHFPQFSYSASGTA
T2 sequence (P31749 whole entry): as the sequence (P31749 whole entry E17K) above, with K17E counted along it

CC(=O)Nc1cccc(-n2c(=O)n(C3CC3)c(=O)c3c(Nc4ccc(I)cc4F)n(C)c(=O)c(C)c32)c1 [trametinib, reference compound]
TGI [1]: 26%

NC1(c2ccc(-c3nc4ccn5c(=O)[nH]nc5c4cc3-c3ccccc3)cc2)CCC1 [MK-2206, reference compound]
plasma membrane translocation of AKT1-E17K (AKT1-E17K): only weakly inhibited
plasma membrane translocation of AKT1-WT (AKT1-WT): inhibited
IC50 (KU-19-19; KU-19-19, MTS, 72 hours, mean ± standard deviation): 21.5 ± 5.3 µM
IC50 (MDA-MB-453; MDA-MB-453, MTS, 72 hours, mean ± standard deviation): 0.26 ± 0.02 µM
IC50 (NCI-H1650; NCI-H1650, MTS, 72 hours, mean ± standard deviation): 15.2 ± 3.01 µM

CC(=O)O[C@H]1C(=O)[C@@]2(C)[C@H]([C@H](OC(=O)c3ccccc3)[C@]3(O)C[C@H](OC(=O)[C@H](O)[C@@H](NC(=O)c4ccccc4)c4ccccc4)C(C)=C1C3(C)C)[C@]1(OC(C)=O)CO[C@@H]1C[C@@H]2O [paclitaxel, reference compound]
tumor growth inhibition (KPL-4 tumors): 41%

CC(C)NC[C@@H](C(=O)N1CCN(c2ncnc3c2[C@H](C)C[C@H]3O)CC1)c1ccc(Cl)cc1 [GDC-0068, reference compound]
plasma membrane translocation of AKT1-E17K (AKT1-E17K): stimulated translocation
plasma membrane translocation of AKT1-WT (AKT1-WT): stimulated translocation
IC50 (KU-19-19; KU-19-19, 72 h): 55 ± 5.1 µM
IC50 (MDA-MB-453; MDA-MB-453, 72 h): 1 ± 0.16 µM
IC50 (NCI-H1650; NCI-H1650, 72 h): > 33.3 µM
